Assay results reported in paper PMC9025336 (Antibiotics, 2022).
Values after ≈ are worked out from the molar mass of the structure shown. Read-outs that look alike come from different tables or passages of the source. Ends that are not written are not given here. Peptide text beside a SMILES is read from it.

Legend:
[1] = lysates of E. coli BW25113; conditions: E. coli BW25113, 37 °C, up to 24 h
[2] = lysates of E. coli Rosetta pLysS; conditions: 37 °C, up to 24 h
[3] = target: 70S ribosome extract of E. coli BW25113 (E. coli BW25113 (endogenous)); assay: fluorescence polarisation; competition: unlabeled peptide (2-fold series from 656 µmol/L) pre-incubated with BW25113 ribosome extract (28 °C, 90 min), then cf-Api137 (10 µL, 80 nmol/L) added (28 °C, 90 min); ribosome preparation buffer; Ki calculated from IC50
[4] = target: 70S ribosome extract of E. coli BW25113 (E. coli BW25113 (endogenous))
[5] = target: 70S ribosome extract of E. coli BW25113 (E. coli BW25113 (endogenous)); assay: fluorescence polarisation; competition: unlabeled peptide (2-fold series from 656 µmol/L) pre-incubated with BW25113 ribosome extract (28 °C, 90 min), then cf-Onc112 (10 µL, 80 nmol/L) added (28 °C, 90 min); ribosome preparation buffer; Ki calculated from IC50
[6] = tested on: E. coli Rosetta DE3 pLysS; assay: MIC, liquid broth microdilution; assay type: cell-based, Escherichia coli; conditions: 25% MHBII medium, 7.5 × 10^6 CFU/mL, 37 °C, 20 ± 2 h, turbidity 600 nm, at least twice in triplicate
Description: (§1) The minimal inhibitory concentrations (MIC) were determined at least twice in triplicate using a liquid broth microdilution assay in sterile 96-well plates and a total volume of 100 μL per well. Aqueous peptide solutions were serially 2-fold diluted in 25% MHBII or 33% TSB medium in a volume of 50 µL. An overnight culture was diluted in 25% MHBII or 33% TSB medium to 1.5 × 10^7 CFU/mL, and an aliquot of 50 μL was added to each well. The final cell count in each well was 7.5 × 10^6 CFU/mL. The plates were incubated at 37 °C for 20 ± 2 h. The turbidity of each well was measured at a wavelength of 600 nm. The MIC was defined as the lowest peptide concentration where the turbidity was identical to medium only.

E. coli BW25113 = assay type: cell-based, Escherichia coli; conditions: BW25113, 2 h
Description: as §1, with “The plates were incubated at 37 °C for 20 ± 2 h.” left out

[7] = tested on: E. coli BL21 (DE3) RIL ribosome extract; conditions: values published for E. coli BL21 (DE3) RIL ribosome extract; read-out: Ki, cf-Onc112; cited from earlier work
Source text: Table 2 Antibacterial activities, dissociation (Kd), and inhibition constants (Ki) of ribosome binding obtained for all PrAMPs included in the current study for E. coli strains BW25113 (BW) and Rosetta DE3 pLysS (Ros). | column: Ki [µmol/L] *** / cf-Onc112

[8] = tested on: E. coli BL21 (DE3) RIL ribosome extract; conditions: values published for E. coli BL21 (DE3) RIL ribosome extract; read-out: Kd (printed in column Ros); cited from earlier work
Source text: Table 2 Antibacterial activities, dissociation (Kd), and inhibition constants (Ki) of ribosome binding obtained for all PrAMPs included in the current study for E. coli strains BW25113 (BW) and Rosetta DE3 pLysS (Ros). | column: Kd [µmol/L] ** / Ros

[9] = tested on: E. coli BL21 (DE3) RIL ribosome extract; conditions: values published for E. coli BL21 (DE3) RIL ribosome extract; read-out: Ki, cf-Api137; cited from earlier work
[10] = target: 70S ribosome extract of E. coli BW25113 (E. coli BW25113 (endogenous)); remark: listed apart in the source

| Molecule | Ki [3] [nM] | Ki [5] [nM] | fragment found [1] | fragment found [2] | also measured |
| --- | --- | --- | --- | --- | --- |
| gu-ONNRPVYIPRPRPPHPRL-OH |  |  | Api137 1-17 (Gu-ONNRPVYIPRPRPPHPR-OH), major | Api137 1-17 (Gu-ONNRPVYIPRPRPPHPR-OH), major |  |
| GNNRPIYIPRPRPPHPRPIRV-OH |  |  | Api805 1-16 (GNNRPIYIPRPRPPHP-OH), major | Api805 1-16 (GNNRPIYIPRPRPPHP-OH), major |  |
| CC[C@H](C)[C@H](NC(=O)[C@@H]1CCCN1C(=O)[C@H](CCCNC(=N)N)NC(=O)[C@@H]1CCCN1C(=O)[C@H](Cc1c[nH]cn1)NC(=O)[C@H](CO)NC(=O)[C@@H](NC(=O)[C@@H]1CCCN1C(=O)[C@H](CCCNC(=N)N)NC(=O)[C@@H]1CCCN1C(=O)[C@H](CO)NC(=O)[C@H](Cc1ccc(O)cc1)NC(=O)[C@@H]1CCCN1C(=O)[C@H](CCCNC(=N)N)NC(=O)[C@@H]1CCCN1C(=O)[C@H](CCCCN)NC(=O)CN)[C@@H](C)O)C(=O)N[C@@H](CCCNC(=N)N)C(=O)N[C@H](C(=O)O)C(C)C [Drosocin] (H-GKPRPYSPRPTSHPRPIRV-OH; N-terminus assumed) |  |  |  |  | MIC, Ros [6]: 8 µg/mL (≈ 3.64 µM); MIC, BW (E. coli BW25113): 128 µg/mL (≈ 58.2 µM); Ki [7]: 1780 nM; Kd [8]: 1080 nM; Ki [9]: 9 nM |

Continued, in another order:

| Ki [3] [nM] | Ki [5] [nM] | Molecule | fragment found [1] | fragment found [2] | also measured |
| --- | --- | --- | --- | --- | --- |
| 2 | 219 | Api137 (peptide) |  |  | inhibition of in vitro translation of GFP (PureExpress Delta RF123 kit with the kit's own ribosomes, RF1 added), GFP fluorescence relative to no PrAMP; peptide 0.05, 5 and 50 µmol/L [4]: 77% |
| 1070 | 489 | GNNRPIYIPRPRPPHPRPIRV-OH [Api805] |  |  | inhibition of in vitro translation of GFP (PureExpress Delta RF123 kit with the kit's own ribosomes, RF1 added), GFP fluorescence relative to no PrAMP; peptide 0.05, 5 and 50 µmol/L [10]: 52%; inhibition of in vitro translation of GFP (PureExpress Delta RF123 kit with the kit's own ribosomes, no release factor), GFP fluorescence relative to no PrAMP; peptide 0.05, 5 and 50 µmol/L [10]: 38% |
